Experimental data reported in patent US20250025495A1, “Diagnosis and Treatment of Metabolic Syndrome with Magnesium Compositions” (priority 2023, published 2025).

What was measured:
[1] = tested on: sulfate reducing bacteria (SRB); test: SRB growth and hydrogen sulfide production with MgO; type: cell-based
Experimental: Total counts were obtained and represented as cells per ml. To account for the heavy right skew of the response variable, the analysis was conducted using a shifted log-transformation of the data and 90% confidence intervals were constructed using Cox's method. […] 90% confidence intervals were constructed using a parametric Bootstrap procedure based on a zero-inflated log-normal model where the parameters were estimated using maximum likelihood. The relationship between MgO dose level and the response (SRB Growth and H2S Concentration) was assessed with an F test based on a simple linear model. Data is presented as Mean±SEM. In this second in-vitro experiment, bacteria was grown with varying doses of MgO (0.5-2.0 mg/ml) in liquid media at 37° for 24 hours (n=3). Total counts were obtained and represented as cells per ml (FIG. 2A). To account for the heavy right skew of the response variable, the analysis was conducted using a shifted log-transformation of the data and 90% confidence intervals were constructed using Cox's method. Hydrogen sulfide production of SRB grown for 24 hours with varying concentrations of MgO as represented as parts per billion (ppb) (FIG. 2B). […] The relationship between MgO dose level and the response (SRB Growth and H2S Concentration) was assessed with an F test based on a simple linear model Data is presented as Mean±SEM.

[2] = gut dysbiosis induced with lectin-containing raw red kidney beans (RRKB); type: in vivo; conditions: by inducing heat shock factor 70
[3] = burn patients, intravenous; cited from earlier work

SMILES: [O]=[Mg] [magnesium oxide]
- reversal of SRB effects (increased intestinal permeability, SRB proliferation, hydrogen sulfide production) [1]: could be reversed

SMILES: [Mg] [magnesium (Mg), magnesium]
- protection of the intestinal barrier by suppressing SRB and blocking production of hydrogen sulfide [1]: effective in protecting the intestinal barrier

SMILES: NC(=O)CC[C@H](N)C(=O)O [glutamine]
- reversal of leaky gut and microbial translocation to the liver [2]: able to reverse these effects
- endotoxemia and increased intestinal permeability [3]: reversed
